Source: patent US11852632B2, “Cancer test device, cancer test method, and staining agent for use in cancer test” (MIE UNIVERSITY, priority 2016, dated 2023)
Where two headings read alike, the source gives them in different places.

Key:
cancer tissue = assay type: in vivo, laboratory mouse; conditions: mouse; for depth to which the tissue is stained: in vivo
Description: (§1) A laboratory mouse was used as the living body. […] The staining period was set at 5 minutes.

healthy mucosa tissue = system: healthy mucosa tissue; design: species or system laboratory mouse; conditions: mouse, in vivo
Description: as §1

[1] = biological target: T1, cancer-related gene product STAT3 (Mus musculus, UniProt P42227); assay: Curcumin living body staining compared with anti-STAT3 antibody immunostaining of the same site, confocal laser microscope; assay type: in vivo, laboratory mouse; conditions: 1%-curcumin then 1%-Acid Red, FIG. 4A (b) versus (e)
T1 construct: used to stain the expressed STAT3-family cancer-related gene product in the living cell; from tissue; host or cells: inner wall of the large intestine of a living laboratory mouse (cancerous and healthy sites)
Description: The sections (a), (b), and (c) of FIG. 4A are images of a sample that is a double-stained living cell group of the inner wall of the intestine of a living laboratory mouse produced by staining the inner wall of the intestine with a 1%-curcumin solution and then staining the curcumin-stained inner wall with 1%-Acid Red (C27H29N2NaO7S2). A confocal laser microscope was used as the image device.
It is therefore determined that the site containing the cell group heavily stained with the curcumin stain is ultra-early cancer. The three panels (d), (e), and (f) in the lower row of FIG. 4A show images of the same site of the large intestine of the digestive tract of the laboratory mouse imaged in the same living body staining as that in the upper row, fixed with formalin, and then imaged in the fluorescence antibody technique. […] The section (f) is a (d)+(e) superimposed image.
The sections (d), (e), and (f) of FIG. 4A are produced by fixing the intestine of the laboratory mouse described above with formalin, then immunostaining the intestine with an anti-STAT3 antibody that bonds to the STAT3-family cancer-related gene product, and imaging the same location as those surrounded by the white frames in the sections (a), (b), and (c). In the sections (d) to (f), the samples were fixed with formalin and therefore slightly shrunk.

T1 sequence (P42227 whole entry): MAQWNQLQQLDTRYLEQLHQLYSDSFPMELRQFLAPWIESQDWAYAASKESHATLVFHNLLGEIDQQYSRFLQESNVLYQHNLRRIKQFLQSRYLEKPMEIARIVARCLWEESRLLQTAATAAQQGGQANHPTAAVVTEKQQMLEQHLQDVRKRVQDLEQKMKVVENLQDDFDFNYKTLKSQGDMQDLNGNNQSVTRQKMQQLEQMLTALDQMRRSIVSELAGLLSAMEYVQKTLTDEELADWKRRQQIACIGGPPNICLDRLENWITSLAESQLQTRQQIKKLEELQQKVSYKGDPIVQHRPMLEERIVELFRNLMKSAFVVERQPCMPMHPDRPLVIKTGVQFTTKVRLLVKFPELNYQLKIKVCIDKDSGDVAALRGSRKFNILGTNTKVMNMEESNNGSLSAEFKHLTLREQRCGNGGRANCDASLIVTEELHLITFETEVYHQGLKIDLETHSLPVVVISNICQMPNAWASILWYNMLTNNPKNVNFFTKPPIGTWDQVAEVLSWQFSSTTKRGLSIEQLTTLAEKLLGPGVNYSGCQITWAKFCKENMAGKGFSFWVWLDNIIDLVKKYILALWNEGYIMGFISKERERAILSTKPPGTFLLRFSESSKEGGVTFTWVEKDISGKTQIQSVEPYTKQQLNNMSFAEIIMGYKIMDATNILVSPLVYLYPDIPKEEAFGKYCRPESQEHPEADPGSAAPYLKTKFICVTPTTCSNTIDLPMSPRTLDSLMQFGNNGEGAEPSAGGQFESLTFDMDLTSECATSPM

| permeability in the cancer tissue compared with the healthy mucosa tissue (cancer tissue) | depth to which the tissue is stained (cancer tissue) | depth to which the tissue is stained (healthy mucosa tissue) | depth to which the tissue is stained (cancer tissue; 5 min) | depth to which the tissue is stained (healthy mucosa tissue; 5 min) | SMILES | distribution of heavily stained cell group versus cell group with STAT3 highly expressed (anti-STAT3 antibody) [1] |
| --- | --- | --- | --- | --- | --- | --- |
| lower permeability | about 40 μm | about 70 μm |  |  | CCN(CC)c1ccc2c(-c3ccc(S(=O)(=O)[O-])cc3S(=O)(=O)[O-])c3ccc(=[N+](CC)CC)cc-3oc2c1.[Na+] [Acid Red] |  |
| higher permeability |  |  | about 40 μm | about 20 μm | COc1cc(/C=C/C(=O)CC(=O)/C=C/c2ccc(O)c(OC)c2)ccc1O [curcumin] | coincides with the distribution of the cell group shown in the section (e) in the lower row and having the cancer-related gene product STAT3 highly expressed |
